{"source": "patent US11493517B2", "about": "“Eukaryotic translation initiation factors (EIFS) as novel biomarkers in head and neck squamous cell carcinoma (HNSCC)” (Otto-von-Guericke-Universität Magdeburg, priority 2020, dated 2022)", "key": {"[1]": {"system": "moderately differentiated laryngeal cancer cell lines (SNU-899, SNU-1066, SNU-1214)", "assay": "MTT cell viability assay in cell culture", "type": "cell-based", "description": "MTT Assay in Cell Culture Cell viability assays were carried out with 3 moderately differentiated laryngeal cancer cell lines (SNU-899, SNU-1066, SNU-1214}. MTT reagent stock solution was prepared by dissolving 5 mg crystal in 1 ml PBS and filter sterilization. The cell culture medium was aspirated and replaced by 100 μl fresh medium and 10 μl MTT stock solution per well. The plates were incubated at 37° C. for two hours. The supernatant was removed and 100 μl DMSO was added to each well. After 15-minute incubation at room temperature in a orbital shaker the absorption at […] was detected. All measurements were performed three times using GloMax@-Multi+Microplate Multimode Reader (Promega, Germany}. All experiments were performed three times with three repetitions."}, "[2]": {"system": "3D-organoids of HNSCC derived from patient populations", "assay": "Patient derived 3D-organoids chemosensitivity testing (CellTiter-Glo luminescence cell viability assay)", "type": "cell-based", "settings": "for IC50: Homo sapiens, patient derived HNSCC 3D-organoids, 72 h incubation", "description": "Patient Derived 3D-Organoids (PD30} and Chemosensitivity Testing Tumor samples from patients, who have undergone resection in the ENT clinic of Otto-von-Guericke University in Magdeburg, were incubated overnight in the RPM medium containing penicillin, streptomycin and amphotericin. On the following day, the tissue samples were crushed, passed through a sieve set to produce a size fraction of between […], which were then incubated on 24-well plates at 37° C. The PD30s were incubated with Salubrinal in a 384-well culture plate for 72 h (i.e. the double population doubling time}. Thereafter, the CellTiter-Glo® luminescence cell viability assay was performed. The reagent mixture was assembled according to the manufacturer's instructions. All experiments were performed three times with three repetitions"}}, "note": "Like-named read-outs stand apart in the source and are kept apart here."}
{"smiles": "O=C(/C=C/c1ccccc1)NC(NC(=S)Nc1cccc2cccnc12)C(Cl)(Cl)Cl", "note": "(centres unmarked) [Salubrinal]", "values": [{"measurement": "cytotoxicity at 50 µM", "setting": "[1]; effect dependent on the cell line and on the dosage, highest efficacy at 50 μM after 72 hours, read-out: reduction of the viability of the cells", "value": "20 to 40", "unit": "%"}, {"measurement": "effect on cell viability (FIG. 4)", "setting": "[1]; in words", "value": "reduction in cell viability"}, {"measurement": "IC50", "setting": "[2]; read-out: IC50 range across samples, reduction of cell viability, range over samples", "value": "16 to 158", "unit": "µM"}, {"measurement": "IC50", "setting": "[2]; read-out: average IC50, reduction of cell viability, average over samples", "value": 56, "unit": "µM"}, {"measurement": "effect on cell viability in 3D-cell culture (FIG. 5)", "setting": "[2]; in words", "value": "reduction of cell viability"}]}
